Measurements published in ChEMBL document CHEMBL1201862, “PubChem BioAssay data set” (2004).
Calls of active or inactive are those of the source.

Columns and labels:
[1] = control 3'UTR Renilla luciferase suppression, dose response, counter-screen for Shn3 inhibitor project, cell-based, Clone20-Shn3RL, cherry-picked (AID 624133); format: functional
[2] = Shn3 3'UTR reporter inhibitors, dose response, cell-based, Clone20 osteoblasts, firefly luciferase, cherry-picked (AID 624132); format: functional;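 further: firefly luciferase luminescence from reporter carrying the Shn3 3'UTR in osteoblasts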
Cytochrome P450 1A2 = molecular target: T1, Cytochrome P450 1A2 (Homo sapiens, UniProt P05177);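 further: PubChem cytochrome P450 panel assay, CYP1A2 panel member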
T1 sequence (P05177 whole entry): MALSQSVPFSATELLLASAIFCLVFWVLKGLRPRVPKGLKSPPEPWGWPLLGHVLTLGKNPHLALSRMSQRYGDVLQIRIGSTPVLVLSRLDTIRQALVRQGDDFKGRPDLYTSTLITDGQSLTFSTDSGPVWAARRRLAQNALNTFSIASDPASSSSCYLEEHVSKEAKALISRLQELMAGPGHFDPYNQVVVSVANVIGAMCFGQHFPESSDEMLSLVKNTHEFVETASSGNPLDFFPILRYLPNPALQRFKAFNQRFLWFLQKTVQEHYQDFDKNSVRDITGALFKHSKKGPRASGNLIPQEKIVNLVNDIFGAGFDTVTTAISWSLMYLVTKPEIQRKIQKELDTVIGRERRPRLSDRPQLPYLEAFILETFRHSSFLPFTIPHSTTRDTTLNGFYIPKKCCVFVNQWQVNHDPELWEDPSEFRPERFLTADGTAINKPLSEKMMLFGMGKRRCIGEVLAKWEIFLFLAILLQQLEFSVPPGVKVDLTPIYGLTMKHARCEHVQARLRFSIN

INS1 = assay: beta cell apoptosis inhibitors, cytokine rescue, dose response, luminescence, retest (AID 449756); format: functional, cell-based; conditions: Rattus norvegicus;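 further: cell death triggered by IL-1 beta plus TNF-alpha plus IFN-gamma mixture; protective hits raise ATP signal compared with cytokine alone wells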
[3] = molecular target: T2, Heat shock factor protein 1 (Mus musculus, UniProt P38532); assay: inhibition of MG132-induced HSE-luciferase signal, confirmation, cell-based, NIH3T3, luminescence, dose retest (AID 2382); format: functional;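 further: NIH3T3 fibroblasts with HSF1-driven luciferase reporter stressed by proteasome inhibitor MG132; luminescence from HSF1-driven luciferase expression after 8 hours of MG132 stress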
T2 sequence (P38532 whole entry): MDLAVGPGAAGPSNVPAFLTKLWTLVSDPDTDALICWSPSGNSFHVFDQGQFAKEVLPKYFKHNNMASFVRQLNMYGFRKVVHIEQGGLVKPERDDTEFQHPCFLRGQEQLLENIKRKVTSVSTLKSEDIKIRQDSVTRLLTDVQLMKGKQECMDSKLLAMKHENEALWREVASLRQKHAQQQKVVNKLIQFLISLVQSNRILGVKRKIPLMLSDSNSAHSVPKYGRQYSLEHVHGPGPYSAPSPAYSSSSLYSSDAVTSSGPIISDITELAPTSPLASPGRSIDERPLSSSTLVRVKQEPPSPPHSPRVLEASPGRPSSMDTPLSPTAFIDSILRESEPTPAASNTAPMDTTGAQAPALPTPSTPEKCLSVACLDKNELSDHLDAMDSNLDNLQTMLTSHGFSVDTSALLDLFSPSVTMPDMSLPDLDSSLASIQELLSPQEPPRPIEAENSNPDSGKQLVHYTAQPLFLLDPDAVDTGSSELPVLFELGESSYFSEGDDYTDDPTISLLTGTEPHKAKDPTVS

Streptococcus = assay: Group A Streptococcus viability loss, dose response, counter-screen for streptokinase expression inhibitor project, luminescence, BacTiterGlo (AID 1915); format: functional, organism-based;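 further: potency for reduction of bacterial viability or growth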
Streptokinase A = molecular target: T3, Streptokinase A (Streptococcus pyogenes serotype M1, UniProt P10520); assay: S. pyogenes streptokinase expression inhibitors, potency, dose response, plasminogen activation absorbance, OD405 (AID 1914); format: functional, Streptococcus pyogenes M1 GAS;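 further: secreted streptokinase activity via plasminogen activation per viability signal from cell pellet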
T3 sequence (P10520 whole entry): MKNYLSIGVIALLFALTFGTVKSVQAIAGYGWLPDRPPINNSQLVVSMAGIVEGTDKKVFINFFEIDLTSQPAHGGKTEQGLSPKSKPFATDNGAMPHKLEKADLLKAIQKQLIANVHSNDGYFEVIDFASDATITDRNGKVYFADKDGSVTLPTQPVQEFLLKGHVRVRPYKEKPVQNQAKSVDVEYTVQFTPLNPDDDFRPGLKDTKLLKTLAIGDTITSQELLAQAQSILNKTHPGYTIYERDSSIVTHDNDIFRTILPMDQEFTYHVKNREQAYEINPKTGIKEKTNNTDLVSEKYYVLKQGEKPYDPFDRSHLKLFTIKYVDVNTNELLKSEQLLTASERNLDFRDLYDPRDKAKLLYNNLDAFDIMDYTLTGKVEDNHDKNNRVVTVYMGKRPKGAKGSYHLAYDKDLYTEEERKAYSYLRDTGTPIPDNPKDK

[4] = system: Streptococcus sp. 'group A'; assay: growth inhibition of control SK(-) GAS strain, dose response, counter-screen for streptokinase expression inhibitor project, luminescence, kanamycin, BacTiterGlo, confirmation (AID 1900); format: functional, organism-based
[5] = Luminescence Cell-Based Dose Retest to Confirm Inhibitors of Cancer Stem Cells. [Related pubchem assays (depositor defined):AID2717, AID2721]; format: functional; conditions: Homo sapiens
Cytochrome P450 2C9 = Cytochrome P450 2C9 (Homo sapiens, UniProt P11712)
Cytochrome P450 2D6 = Cytochrome P450 2D6 (Homo sapiens, UniProt P10635);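 further: CYP2D6 member of a cytochrome P450 panel assay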
Cytochrome P450 2C19 = Cytochrome P450 2C19 (Homo sapiens, UniProt P33261); assay: Cytochrome panel assay with activity outcomes. Panel member name: p450-cyp2c19 Compounds with AC50 equal or less than 10 uM are considered active; format: functional
[6] = molecular target: T4, Corticotropin-releasing factor receptor 2/Corticotropin-releasing factor-binding protein (Homo sapiens, UniProt P24387+Q13324); assay: activators of CRF receptor 2 with binding protein – uHTS hits, confirmation (AID 602473); format: functional; conditions: read-out: EC50_Mean
T4 sequence (Q13324 whole entry): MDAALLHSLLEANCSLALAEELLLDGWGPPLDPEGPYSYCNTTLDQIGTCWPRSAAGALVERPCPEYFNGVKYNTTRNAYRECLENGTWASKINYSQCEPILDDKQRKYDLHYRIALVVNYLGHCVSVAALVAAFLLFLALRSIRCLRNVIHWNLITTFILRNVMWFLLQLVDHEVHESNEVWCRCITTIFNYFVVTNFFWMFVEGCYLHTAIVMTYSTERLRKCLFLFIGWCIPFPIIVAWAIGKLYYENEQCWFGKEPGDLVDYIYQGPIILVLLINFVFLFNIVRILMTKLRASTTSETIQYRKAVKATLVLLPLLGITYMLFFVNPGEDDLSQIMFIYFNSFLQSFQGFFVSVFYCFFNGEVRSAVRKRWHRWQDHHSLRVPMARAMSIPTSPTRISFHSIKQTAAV
T4 sequence (P24387 whole entry): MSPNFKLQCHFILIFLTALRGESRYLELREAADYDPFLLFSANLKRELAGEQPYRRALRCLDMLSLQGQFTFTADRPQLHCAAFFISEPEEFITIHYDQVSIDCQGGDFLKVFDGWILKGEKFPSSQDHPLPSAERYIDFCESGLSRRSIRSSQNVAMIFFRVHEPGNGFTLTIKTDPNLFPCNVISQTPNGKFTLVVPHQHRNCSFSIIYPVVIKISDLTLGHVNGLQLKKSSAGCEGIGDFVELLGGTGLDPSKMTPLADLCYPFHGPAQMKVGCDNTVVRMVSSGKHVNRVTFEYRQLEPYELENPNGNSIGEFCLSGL

Sequence of Cytochrome P450 2C19 (P33261 whole entry): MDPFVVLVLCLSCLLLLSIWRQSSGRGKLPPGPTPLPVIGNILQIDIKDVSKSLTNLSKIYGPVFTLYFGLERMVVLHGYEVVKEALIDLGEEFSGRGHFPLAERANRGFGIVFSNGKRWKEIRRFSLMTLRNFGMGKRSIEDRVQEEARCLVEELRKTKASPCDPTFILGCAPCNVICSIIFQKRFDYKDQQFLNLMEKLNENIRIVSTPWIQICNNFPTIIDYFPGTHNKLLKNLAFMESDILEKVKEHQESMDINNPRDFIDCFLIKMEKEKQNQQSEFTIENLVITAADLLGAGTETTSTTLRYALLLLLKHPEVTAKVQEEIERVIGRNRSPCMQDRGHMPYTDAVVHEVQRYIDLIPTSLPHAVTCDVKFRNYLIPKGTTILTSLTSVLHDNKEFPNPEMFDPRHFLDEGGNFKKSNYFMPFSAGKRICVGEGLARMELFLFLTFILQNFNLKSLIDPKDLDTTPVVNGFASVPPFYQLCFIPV
Sequence of Cytochrome P450 2D6 (P10635 whole entry): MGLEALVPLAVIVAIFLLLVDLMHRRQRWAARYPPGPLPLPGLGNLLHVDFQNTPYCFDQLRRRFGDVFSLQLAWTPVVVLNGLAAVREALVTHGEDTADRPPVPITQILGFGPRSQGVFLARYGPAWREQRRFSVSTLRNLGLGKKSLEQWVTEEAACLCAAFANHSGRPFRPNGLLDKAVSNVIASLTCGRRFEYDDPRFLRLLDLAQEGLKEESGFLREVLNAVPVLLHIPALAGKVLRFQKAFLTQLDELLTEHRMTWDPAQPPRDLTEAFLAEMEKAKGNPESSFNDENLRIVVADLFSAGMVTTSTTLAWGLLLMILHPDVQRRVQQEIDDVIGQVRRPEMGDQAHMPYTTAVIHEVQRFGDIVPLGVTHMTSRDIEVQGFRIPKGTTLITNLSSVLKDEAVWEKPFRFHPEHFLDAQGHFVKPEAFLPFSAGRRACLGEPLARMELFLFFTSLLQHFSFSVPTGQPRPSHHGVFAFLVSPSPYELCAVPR
Sequence of Cytochrome P450 2C9 (P11712 whole entry): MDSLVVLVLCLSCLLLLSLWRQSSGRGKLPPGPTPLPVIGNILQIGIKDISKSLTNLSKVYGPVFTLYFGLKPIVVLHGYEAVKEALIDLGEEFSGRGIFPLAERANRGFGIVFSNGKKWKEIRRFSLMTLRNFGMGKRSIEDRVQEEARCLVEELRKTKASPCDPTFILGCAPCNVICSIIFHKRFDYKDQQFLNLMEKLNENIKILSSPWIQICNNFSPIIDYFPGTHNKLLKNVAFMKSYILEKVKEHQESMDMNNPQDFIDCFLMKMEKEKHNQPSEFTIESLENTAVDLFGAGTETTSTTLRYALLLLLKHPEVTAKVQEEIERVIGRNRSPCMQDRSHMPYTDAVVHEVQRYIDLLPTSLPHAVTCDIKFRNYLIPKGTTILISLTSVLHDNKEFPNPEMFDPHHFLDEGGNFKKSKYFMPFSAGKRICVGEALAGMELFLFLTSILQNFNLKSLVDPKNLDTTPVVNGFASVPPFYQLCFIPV

CC(=O)N1c2ccc(S(=O)(=O)N3CCC(C(=O)N4CCN(c5ccccc5F)CC4)CC3)cc2CC1C (centres undefined)
AC50 [1]: 2.42 µM (active)
AC50 [2]: 5.41 µM (active)

COc1ccc(C2=NOC(C(=O)NCCN3CCOCC3)C2)cc1 (centres undefined)
AC50 (Cytochrome P450 1A2): 31.6 µM (inconclusive)

COc1ccc(N(C)S(=O)(=O)c2cccc(C(=O)Nc3nc(C)c(C(C)=O)s3)c2)cc1
AC50 (INS1): 28.3 µM (active)

CCc1ccccc1N(CC(=O)N1CCCC1)S(C)(=O)=O
EC50 [3]: > 195 µM (not active)

NC(=O)C1CCCN(C(=O)c2ccc3oc(Cc4ccc(Cl)cc4)nc3c2)C1 (centres undefined)
EC50 [3]: > 195 µM (not active)

COc1ccc(C)cc1NC(=O)NC1CCCc2ccccc21 (centres undefined)
EC50 (Streptococcus): > 150 µM (not active)
EC50 (Streptokinase A): > 150 µM (not active)
EC50 [4]: > 150 µM (not active)

O=C(C(Sc1ccccc1)c1ccccc1)N1CCN(c2ccccc2F)CC1 (centres undefined)
AC50 (INS1): > 120 µM (inactive)

Nc1nc2n(c1C(=O)c1ccccc1)CCC2
EC50 [3]: 78 µM (active)

COc1cccc(/C=C/C(=C2/C(=O)N(c3ccccc3)N=C2C)c2ccc(Br)cc2)c1OC
AC50 [5]: > 195 µM (inactive)
EC50 (Streptococcus): > 150 µM (not active)
EC50 (Streptokinase A): > 150 µM (not active)
EC50 [4]: > 150 µM (not active)

Cc1cccc(CCNC(=O)CC2C(=O)NCCN2Cc2ccccc2C)n1 (centres undefined)
EC50 (Streptococcus): > 150 µM (not active)
EC50 (Streptokinase A): > 150 µM (not active)
EC50 [4]: > 150 µM (not active)

CCOc1ccc(C(Nc2ccc(C)cc2)P2(=O)OCC(C)(C)CO2)cc1 (centres undefined)
AC50 (Cytochrome P450 1A2): 39.8 µM (inconclusive)
AC50 (Cytochrome P450 2C9): 0.02 µM (inconclusive)

COc1ccccc1C(=O)NC(=S)Nc1ccc(NC(=O)c2ccco2)cc1
EC50 (Streptococcus): 114 µM (inconclusive)
EC50 (Streptokinase A): > 150 µM (not active)

O=S(=O)(c1ccccc1)N1CCN=C1SCc1c(F)cccc1Cl
EC50 (Streptococcus): > 150 µM (not active)
EC50 (Streptokinase A): 18.4 µM (active)

CCOC(=O)Cc1csc(SCC(=O)c2c(N)n(CC(C)C)c(=O)n(C)c2=O)n1
AC50 [1]: 8.62 µM (active)
AC50 [2]: 2.35 µM (active)

O=C(CC(Nc1ccc(Cl)cc1Cl)C(=O)O)c1ccccc1 (centres undefined)
EC50 [3]: < 0.16 µM (active)

COc1ccc(C2=NN(S(C)(=O)=O)C(c3cccs3)C2)cc1OC (centres undefined)
EC50 [3]: > 195 µM (not active)

CC(=O)c1ccc(NC(=O)C2CCN(S(=O)(=O)c3cccc4cccnc34)CC2)cc1
EC50 [3]: > 195 µM (not active)

CCN(CC)CCOc1ccc2nc(N(C)C)sc2c1
AC50 (Cytochrome P450 1A2): 15.8 µM (inconclusive)
AC50 (Cytochrome P450 2D6): 15.8 µM (inconclusive)

O=C(Nc1ccccc1N1CCCC1)c1cccnc1Cl
EC50 [3]: > 195 µM (not active)

CCNc1ncc2nc(-c3ccc(F)cc3)c(=O)n(CCOC)c2n1
AC50 (Cytochrome P450 1A2): 2 µM (inconclusive)
AC50 (Cytochrome P450 2D6): 3.98 µM (inconclusive)

COc1ccccc1-c1cncnc1NCc1cnc(C)cn1
AC50 (Cytochrome P450 2C19; read-out: AC50): 31.6 µM (inconclusive)
AC50 (Cytochrome P450 1A2): 20 µM (inconclusive)
AC50 (Cytochrome P450 2D6): 39.8 µM (inconclusive)

C(#Cc1ccccc1)CN1CCN(c2ccccn2)CC1
EC50 [3]: > 195 µM (not active)

COc1cc(C(=O)N2CCSCC2)ccc1OC1CCN(C(C)=O)CC1
EC50 [3]: > 195 µM (not active)

CCOC(=O)c1c(C)nc2c(c1-c1ccc(OC)cc1)C(=O)CC(C)(C)C2
AC50 (Cytochrome P450 1A2): 14.1 µM (inconclusive)

Cc1ccc(OP(=O)(Nc2cccc(C)c2)Oc2ccc(C)cc2)cc1
EC50 (Streptococcus): 28.9 µM (active)
EC50 (Streptokinase A): 5.1 µM (active)
EC50 [4]: 13 µM (active)

CC1CCOC2(O1)C(=O)N(CN1CCN(c3ccccc3F)CC1)c1ccccc12 (centres undefined)
AC50 (Cytochrome P450 2C19; read-out: AC50): 11.2 µM (inconclusive)
AC50 (Cytochrome P450 1A2): 2 µM (inconclusive)
AC50 (Cytochrome P450 2D6): 25.1 µM (inconclusive)

CCc1ccc(NC(=O)C2C3CCC(O3)C2C(=O)O)cc1 (centres undefined)
EC50 [3]: 67 µM (active)

CCN(c1ccccc1)S(=O)(=O)c1ccc(Cl)c(NC(=O)CSc2nnc(C)s2)c1
EC50 [3]: > 195 µM (not active)

CC1(C)NC(=O)N(CC(O)CN(c2ccccc2)S(=O)(=O)c2ccc([N+](=O)[O-])cc2)C1=O (centres undefined)
EC50 [3]: > 195 µM (not active)

O=C(c1ccco1)N1CCC2(CCN(Cc3ccncc3)CC2)CC1
AC50 (Cytochrome P450 1A2): 20 µM (inconclusive)
AC50 (Cytochrome P450 2D6): 10 µM (inconclusive)

COc1ccc(OC)c(C2N(c3cc(C)on3)C(=O)C3CCCN32)c1 (centres undefined)
AC50 (Cytochrome P450 2C19): inconclusive
AC50 (Cytochrome P450 1A2): 25.1 µM (inconclusive)

COc1ccc2c(C(=O)NCc3ccc4c(c3)OCO4)c(-c3ccc(S(C)(=O)=O)cc3)sc2c1
AC50 (INS1): 6.76 µM (active)

CC(C)(C)OC(=O)NCc1ccc(NC(=O)c2[nH]cnc2C(=O)NCCCCNC(=O)c2nc[nH]c2C(=O)Nc2ccc(CNC(=O)OC(C)(C)C)cc2)cc1
AC50 [5]: 1.73 µM (active)
AC50 (INS1): 3.36 µM (active)

CN(C)c1ccc(C=C2SC(=S)NC2=O)cc1
EC50 [6]: 4.78 µM (active)

CCOC(=O)C1=C(COc2ccc(F)cc2Cl)NC(=O)NC1c1cc(C)ccc1C (centres undefined)
AC50 (Cytochrome P450 1A2): 17.8 µM (inconclusive)

N[C@H](Cc1ccccc1)c1nnn[nH]1
AC50 (Cytochrome P450 1A2): 10 µM (inconclusive)

Cc1ccc(S(=O)(=O)c2cc3ccccc3o/c2=N\c2ccc3c(c2)OCO3)cc1
AC50 (Cytochrome P450 1A2): 2.82 µM (inconclusive)
AC50 (Cytochrome P450 2C9): 3.55 µM (inconclusive)
AC50 (Cytochrome P450 2D6): 7.94 µM (inconclusive)

CCn1c(C(C#N)/C(=N\S(=O)(=O)c2cccs2)c2ccccc2)nc2ccccc21 (centres undefined)
EC50 [3]: > 195 µM (not active)

C/C(CC(=O)Nc1ccccc1C(F)(F)F)=N\NC(=O)c1cnccn1
EC50 [3]: > 195 µM (not active)

COc1ccc(CN2C(=O)c3ccccc3C(/C=N/OCc3ccc(Cl)cc3)C2=O)cc1 (centres undefined)
EC50 (Streptococcus): 8.28 µM (active)
EC50 (Streptokinase A): > 150 µM (not active)
EC50 [4]: 1.44 µM (active)

C/C(=N\O)C1CCCCC1
EC50 [3]: > 195 µM (not active)

NC1(C(=O)O)CCC1 [1-AMINOCYCLOBUTANE CARBOXYLIC ACID]
AC50 (Cytochrome P450 1A2): 39.8 µM (inconclusive)
